Experimental data taken from BigSolDB 2.1.

CC(C)(C)c1ccc2c(c1)C(=O)c1ccccc1C2=O
solubility (mole fraction)
Settings | 303.15 K | 308.15 K | 313.15 K | 318.15 K | 323.15 K | 333.15 K
in 2,6-dimethyl-4-heptanol | 0.0245 | 0.0351 | 0.0461 | 0.0635 | 0.0998 | 0.21
in mesitylene | 0.282 | 0.317 | 0.345 | 0.386 | 0.443 | 0.604
in trioctyl phosphate | 0.169 | 0.185 | 0.209 | 0.254 | 0.296 | 0.39
